Measurements as given in patent US20150148234A1, “HERBICIDE-RESISTANT SUNFLOWER PLANTS WITH MULTIPLE HERBICIDE RESISTANT ALLELES OF AHASL1 AND METHODS OF USE” (NIDERA S.A., priority 2013, published 2015).

Experiments:
[1] = tested on: F2 population from the cross GM40 (A122T)/HA425 (A205V); experiment: imazapyr challenge of segregating population (Example 1); type: in vivo, sunflower; conditions: 320 g a.i. ha-1; eighty F2 plants
Protocol: (§1) To determine the phenotypic interactions of the resistance gene A122T and the Imr1 gene (A205V) already described in IMI-R sunflowers (HA425), F1, F2 and BC1F1 populations from the cross GM40 (A122T)/HA425 (A205V) were evaluated at two herbicide applications rates (80 and 320 g. a. i. Ha^−1 of imazapyr). […] When F2 and BC1F1 populations were scored at the higher herbicide rate (320 g. a. i. Ha-1), which discriminates both parents, segregation for susceptibility was observed. Only two phenotypic classes could be detected, a resistant class with plants without any injury or slight symptoms and a susceptible phenotype that was killed like the control line HA425.
The AHASL1 gene in sunflower presents a simple sequence repeat (SSR) polymorphism which discriminates lines carrying the Imr1 allele from any other sunflower genotype (Kolkman et al. (2004) Theor. Appl. Genet. 109: 1147-1159). […] This length variant polymorphism detected in GM40 and HA425 was exploited to investigate the segregation in the F2 and BC1F1 populations derived from crossing both lines. […] The cosegregation of herbicide resistance phenotypes and AHASL1 haplotypes was further assessed on 50 BC1F1 progeny segregating for resistance. […]

[2] = tested on: control line HA425 (A205V); experiment: as above; type: in vivo, sunflower; conditions: 320 g a.i. ha-1
Protocol: as §1

[3] = tested on: sunflower hybrid H1 (L1*L2), 205/205; experiment: field trial, imazapyr at V8 or R1 stage (Example 4); conditions: H1 205/205
[4] = tested on: sunflower hybrid H3 (L3*L2), 122/205; experiment: as above; conditions: H3 122/205
[5] = tested on: sunflower hybrid H6 (L1 * WT), 205/wild type; experiment: as above; conditions: H6 205/wild type
[6] = tested on: hybrids carrying the A205V mutation event (A205V/A205V, A205V/WT); experiment: as above; conditions: 160 g ai/ha applied at R1; 14 DAT
[7] = tested on: sunflower line BTI-OL-M1511; experiment: tolerance to imidazolinones, greenhouse (Example 8); conditions: 160 gr/ha at V4, fourteen days after treatment
[8] = tested on: sunflower line BTI-OL-M1709; experiment: as above; conditions: 160 gr/ha at V4, fourteen days after treatment
[9] = tested on: sunflower line BTI-OL-2201; experiment: as above; conditions: 160 gr/ha at V4, fourteen days after treatment
[10] = tested on: sunflower line VB141 (high oleic); experiment: as above
[11] = tested on: sunflower line OB712 (high oleic); experiment: as above
[12] = tested on: sunflower line B770 (conventional); experiment: as above
[13] = 160 g ai/ha applied at R1, 14 DAT
[14] = 160 g ai/ha applied at R1, 21 DAT
[15] = 160 g ai/ha applied at V8, 14 DAT
[16] = 160 g ai/ha applied at V8, 21 DAT
[17] = 160 gr/ha at V4, fourteen days after treatment

Q: For `CC(C)C1(C)N=C(c2ncccc2C(=O)O)NC1=O` (stereo not shown) [imazapyr], which “plants killed by the herbicide (S)” value [1] is on record?
A: 22 plants

Q: And the “plants with no symptoms or a slight injury (R)” value [1]?
A: 58 plants

Q: What about the “outcome of herbicide application” value [2] of the same compound?
A: killed

Q: And the “Mean Phytotoxicity Index (0-50)” value [3, 13]?
A: 35

Q: And the “Mean Phytotoxicity Index (0-50)” value [3, 14]?
A: 37.7

Q: What about the “Mean Phytotoxicity Index (0-50)” value [3, 15] of the same compound?
A: 6

Q: And the “Mean Phytotoxicity Index (0-50)” value [3, 16]?
A: 3

Q: What about the “Mean Phytotoxicity Index (0-50)” value [4, 13] of the same compound?
A: 4.3

Q: What about the “Mean Phytotoxicity Index (0-50)” value [4, 14] of the same compound?
A: 0.7

Q: What about the “Mean Phytotoxicity Index (0-50)” value [4, 15] of the same compound?
A: 3

Q: And the “Mean Phytotoxicity Index (0-50)” value [4, 16]?
A: 0

Q: And the “Mean Phytotoxicity Index (0-50)” value [5, 13]?
A: 40

Q: And the “Mean Phytotoxicity Index (0-50)” value [5, 14]?
A: 48.3

Q: What about the “Mean Phytotoxicity Index (0-50)” value [5, 15] of the same compound?
A: 5

Q: What about the “Mean Phytotoxicity Index (0-50)” value [5, 16] of the same compound?
A: 5

Q: And the “PI (0-50), group with chlorosis, stunting and deformation” value [6]?
A: greater than 35

Q: And the “Mean Phytotoxicity Index (0-9)” value [7]?
A: 0.5

Q: What about the “Mean Phytotoxicity Index (0-9)” value [8] of the same compound?
A: 0.2

Q: What about the “Mean Phytotoxicity Index (0-9)” value [9] of the same compound?
A: 0.2

Q: What about the “outcome of the herbicide treatment” value ([10]; 160 gr/ha at V4) of the same compound?
A: killed

Q: What about the “Mean Phytotoxicity Index (0-9)” value [10, 17] of the same compound?
A: 8.5

Q: And the “outcome of the herbicide treatment” value ([11]; 160 gr/ha at V4)?
A: killed

Q: What about the “Mean Phytotoxicity Index (0-9)” value [11, 17] of the same compound?
A: 9

Q: What about the “outcome of the herbicide treatment” value ([12]; 160 gr/ha at V4) of the same compound?
A: killed

Q: And the “Mean Phytotoxicity Index (0-9)” value [12, 17]?
A: 8.7
